Tested on: NCI-H929 complex spheroids, viability % test/control
Assay: Anticancer human tumor NCI-H929 cell line growth inhibition [RAS];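 also: compound exposure lasted seven days before viability was read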;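 as to viability, T/C: 100% = DMSO vehicle control viability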
Conditions: for IC50: curve of first compound; for viability, T/C: stronger effect = lower value
Procedure, shortened: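 Agents were tested in combination matrices in half-log decrements from a top concentration at or near clinical Cmax (10 microM if undetermined). Targets were multi-cell spheroids of tumour lines plus HUVEC and MSC stromal cells.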

[1] = second compound 0.000949 µM, first compound 0.0316 µM
[2] = second compound 0.000949 µM, first compound 0.1 µM
[3] = second compound 0.000949 µM, first compound 0.316 µM
[4] = second compound 0.000949 µM, first compound 1 µM
[5] = second compound 0.000949 µM, first compound 3.16 µM
[6] = second compound 0.000949 µM, first compound 10 µM
[7] = second compound 0.003 µM, first compound 0.0316 µM
[8] = second compound 0.003 µM, first compound 0.1 µM
[9] = second compound 0.003 µM, first compound 0.316 µM
[10] = second compound 0.003 µM, first compound 1 µM
[11] = second compound 0.003 µM, first compound 3.16 µM
[12] = second compound 0.003 µM, first compound 10 µM
[13] = second compound 0.00949 µM, first compound 0.0316 µM
[14] = second compound 0.00949 µM, first compound 0.1 µM
[15] = second compound 0.00949 µM, first compound 0.316 µM
[16] = second compound 0.00949 µM, first compound 1 µM
[17] = second compound 0.00949 µM, first compound 3.16 µM
[18] = second compound 0.00949 µM, first compound 10 µM
[19] = second compound 0.03 µM, first compound 0.0316 µM
[20] = second compound 0.03 µM, first compound 0.1 µM
[21] = second compound 0.03 µM, first compound 0.316 µM
[22] = second compound 0.03 µM, first compound 1 µM
[23] = second compound 0.03 µM, first compound 3.16 µM
[24] = second compound 0.03 µM, first compound 10 µM
[25] = second compound 0.0949 µM, first compound 0.0316 µM
[26] = second compound 0.0949 µM, first compound 0.1 µM
[27] = second compound 0.0949 µM, first compound 0.316 µM
[28] = second compound 0.0949 µM, first compound 1 µM
[29] = second compound 0.0949 µM, first compound 3.16 µM
[30] = second compound 0.0949 µM, first compound 10 µM
[31] = second compound 0.3 µM, first compound 0.0316 µM
[32] = second compound 0.3 µM, first compound 0.1 µM
[33] = second compound 0.3 µM, first compound 0.316 µM
[34] = second compound 0.3 µM, first compound 1 µM
[35] = second compound 0.3 µM, first compound 3.16 µM
[36] = second compound 0.3 µM, first compound 10 µM

CC(C)NCC(C(=O)N1CCN(c2ncnc3c2C(C)CC3O)CC1)c1ccc(Cl)cc1 (stereo unspecified) + CCn1c(-c2cccnc2C(C)OC)c2c3cc(ccc31)N1CCOC(CC(NC(=O)C(C(C)C)N(C)C(=O)C3(F)CCN(C(=O)C#CC(C)(C)N(C)C)CC3)C(=O)N3CCCC(N3)C(=O)OCC(C)(C)C2)C1 gave an IC50 (second compound 0.000949 µM) of 1310 nM, an IC50 (second compound 0.003 µM) of 1430 nM and an IC50 (second compound 0.00949 µM) of 1640 nM. For the same compound, the IC50 (second compound 0.03 µM) was 1450 nM, the IC50 (second compound 0.0949 µM) was 1200 nM and the IC50 (second compound 0.3 µM) was 986 nM. The viability, T/C [1] was 106%, the viability, T/C [2] was 96.4% and the viability, T/C [3] was 98.7%. It also gave a viability, T/C [4] of 59.4%, a viability, T/C [5] of 16.5% and a viability, T/C [6] of 2.67%. For the same compound, the viability, T/C [7] was 99.5%, the viability, T/C [8] was 101% and the viability, T/C [9] was 95%. The viability, T/C [10] was 65.4%, the viability, T/C [11] was 15.5% and the viability, T/C [12] was 2.08%. For the same compound, the viability, T/C [13] was 98.6%, the viability, T/C [14] was 97% and the viability, T/C [15] was 99%. The viability, T/C [16] was 68.7%, the viability, T/C [17] was 23.8% and the viability, T/C [18] was 2.36%. It also gave a viability, T/C [19] of 101%, a viability, T/C [20] of 100% and a viability, T/C [21] of 98.5%. The viability, T/C [22] was 67.7%, the viability, T/C [23] was 12.6% and the viability, T/C [24] was 1.6%. It also gave a viability, T/C [25] of 101%, a viability, T/C [26] of 102% and a viability, T/C [27] of 97.4%. The viability, T/C [28] was 57.4%, the viability, T/C [29] was 9.37% and the viability, T/C [30] was 1.65%. It also gave a viability, T/C [31] of 103%, a viability, T/C [32] of 103% and a viability, T/C [33] of 95.1%. For the same compound, the viability, T/C [34] was 49.6%, the viability, T/C [35] was 6.6% and the viability, T/C [36] was 1.34%.
CC(Nc1ccc2c(c1)OCCn1cc(N3C(=O)OCC3C(F)F)nc1-2)C(N)=O (stereo unspecified) + CCn1c(-c2cccnc2C(C)OC)c2c3cc(ccc31)N1CCOC(CC(NC(=O)C(C(C)C)N(C)C(=O)C3(F)CCN(C(=O)C#CC(C)(C)N(C)C)CC3)C(=O)N3CCCC(N3)C(=O)OCC(C)(C)C2)C1 was tested, and the IC50 (second compound 0.000949 µM) was 6450 nM, the IC50 (second compound 0.003 µM) was 6540 nM and the IC50 (second compound 0.00949 µM) was 5960 nM. The IC50 (second compound 0.03 µM) was 5960 nM, the IC50 (second compound 0.0949 µM) was 5440 nM and the IC50 (second compound 0.3 µM) was 4400 nM. It also gave a viability, T/C [1] of 103%, a viability, T/C [2] of 94.3% and a viability, T/C [3] of 96.2%. The viability, T/C [4] was 87.2%, the viability, T/C [5] was 83.5% and the viability, T/C [6] was 30.4%. For the same compound, the viability, T/C [7] was 99.5%, the viability, T/C [8] was 96.1% and the viability, T/C [9] was 94.5%. The viability, T/C [10] was 90.5%, the viability, T/C [11] was 79.8% and the viability, T/C [12] was 32.7%. The viability, T/C [13] was 98.7%, the viability, T/C [14] was 97.1% and the viability, T/C [15] was 96.5%. It also gave a viability, T/C [16] of 92%, a viability, T/C [17] of 85.3% and a viability, T/C [18] of 21.6%. The viability, T/C [19] was 94.1%, the viability, T/C [20] was 96.6% and the viability, T/C [21] was 96.5%. The viability, T/C [22] was 91.8%, the viability, T/C [23] was 83.1% and the viability, T/C [24] was 22.9%. The viability, T/C [25] was 96.9%, the viability, T/C [26] was 98.1% and the viability, T/C [27] was 94.5%. For the same compound, the viability, T/C [28] was 91.1%, the viability, T/C [29] was 80.2% and the viability, T/C [30] was 17%. For the same compound, the viability, T/C [31] was 101%, the viability, T/C [32] was 101% and the viability, T/C [33] was 97.2%. For the same compound, the viability, T/C [34] was 86%, the viability, T/C [35] was 65.6% and the viability, T/C [36] was 13.2%.
For O=C(c1ccc(F)c(F)c1Nc1ccc(I)cc1F)N1CC(O)([C@@H]2CCCCN2)C1 + CCn1c(-c2cccnc2C(C)OC)c2c3cc(ccc31)N1CCOC(CC(NC(=O)C(C(C)C)N(C)C(=O)C3(F)CCN(C(=O)C#CC(C)(C)N(C)C)CC3)C(=O)N3CCCC(N3)C(=O)OCC(C)(C)C2)C1, the IC50 (second compound 0.000949 µM) was 663 nM, the IC50 (second compound 0.003 µM) was 688 nM and the IC50 (second compound 0.00949 µM) was 686 nM. The IC50 (second compound 0.03 µM) was 661 nM, the IC50 (second compound 0.0949 µM) was 636 nM and the IC50 (second compound 0.3 µM) was 597 nM. For the same compound, the viability, T/C (second compound 0.000949 µM, first compound 0.00316 µM) was 109%, the viability, T/C (second compound 0.000949 µM, first compound 0.01 µM) was 97.9% and the viability, T/C [1] was 103%. It also gave a viability, T/C [2] of 92.5%, a viability, T/C [3] of 98.3% and a viability, T/C [4] of 23.2%. It also gave a viability, T/C (second compound 0.003 µM, first compound 0.00316 µM) of 99.2%, a viability, T/C (second compound 0.003 µM, first compound 0.01 µM) of 102% and a viability, T/C [7] of 101%. It also gave a viability, T/C [8] of 93.7%, a viability, T/C [9] of 98.4% and a viability, T/C [10] of 26.8%. The viability, T/C (second compound 0.00949 µM, first compound 0.00316 µM) was 97.2%, the viability, T/C (second compound 0.00949 µM, first compound 0.01 µM) was 102% and the viability, T/C [13] was 104%. For the same compound, the viability, T/C [14] was 95.1%, the viability, T/C [15] was 101% and the viability, T/C [16] was 25.5%. The viability, T/C (second compound 0.03 µM, first compound 0.00316 µM) was 98.6%, the viability, T/C (second compound 0.03 µM, first compound 0.01 µM) was 100% and the viability, T/C [19] was 102%. For the same compound, the viability, T/C [20] was 96.9%, the viability, T/C [21] was 101% and the viability, T/C [22] was 21.8%. For the same compound, the viability, T/C (second compound 0.0949 µM, first compound 0.00316 µM) was 96.6%, the viability, T/C (second compound 0.0949 µM, first compound 0.01 µM) was 99.7% and the viability, T/C [25] was 101%. It also gave a viability, T/C [26] of 98.4%, a viability, T/C [27] of 103% and a viability, T/C [28] of 17.7%. It also gave a viability, T/C (second compound 0.3 µM, first compound 0.00316 µM) of 100%, a viability, T/C (second compound 0.3 µM, first compound 0.01 µM) of 101% and a viability, T/C [31] of 101%. The viability, T/C [32] was 100%, the viability, T/C [33] was 105% and the viability, T/C [34] was 8.18%.
